Assays:
Format in all cases: cell-based
WEE1 = target: T1, WEE1 (Homo sapiens, UniProt P30291+Q96SW2); assay: Western-blot assay, substrate protein degradation in hPBMCs: WEE1; settings: for WEE1 substrate protein remaining %: compounds at 50 nM and 500 nM, 24 hours
T1 construct: effects of the compounds of the present disclosure on the expression of target proteins in cells; endogenous in cells; host or cells: human PBMCs (hPBMCs)

IKZF1 = target: T2, IKZF1 (Homo sapiens, UniProt Q13422+Q96SW2); assay: Western-blot assay, substrate protein degradation in hPBMCs: IKZF1; settings: for IKZF1 substrate protein remaining %: compounds at 50 nM and 500 nM, 24 hours
T2 construct: effects of the compounds of the present disclosure on the expression of target proteins in cells; endogenous in cells; host or cells: human PBMCs (hPBMCs)
T2 sequence (Q13422 whole entry): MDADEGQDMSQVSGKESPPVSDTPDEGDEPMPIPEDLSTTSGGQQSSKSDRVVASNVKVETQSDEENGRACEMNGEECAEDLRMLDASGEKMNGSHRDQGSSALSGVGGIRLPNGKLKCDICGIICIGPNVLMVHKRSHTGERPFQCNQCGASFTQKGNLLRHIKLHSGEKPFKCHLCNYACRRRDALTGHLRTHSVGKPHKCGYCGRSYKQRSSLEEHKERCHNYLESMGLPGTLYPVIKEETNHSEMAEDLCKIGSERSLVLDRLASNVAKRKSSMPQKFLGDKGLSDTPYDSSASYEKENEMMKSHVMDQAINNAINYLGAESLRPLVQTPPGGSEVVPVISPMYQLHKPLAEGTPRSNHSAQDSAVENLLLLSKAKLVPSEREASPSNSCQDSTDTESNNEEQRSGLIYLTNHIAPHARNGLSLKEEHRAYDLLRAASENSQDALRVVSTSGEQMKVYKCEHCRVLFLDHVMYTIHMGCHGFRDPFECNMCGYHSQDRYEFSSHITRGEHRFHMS
T2 sequence (Q96SW2 whole entry): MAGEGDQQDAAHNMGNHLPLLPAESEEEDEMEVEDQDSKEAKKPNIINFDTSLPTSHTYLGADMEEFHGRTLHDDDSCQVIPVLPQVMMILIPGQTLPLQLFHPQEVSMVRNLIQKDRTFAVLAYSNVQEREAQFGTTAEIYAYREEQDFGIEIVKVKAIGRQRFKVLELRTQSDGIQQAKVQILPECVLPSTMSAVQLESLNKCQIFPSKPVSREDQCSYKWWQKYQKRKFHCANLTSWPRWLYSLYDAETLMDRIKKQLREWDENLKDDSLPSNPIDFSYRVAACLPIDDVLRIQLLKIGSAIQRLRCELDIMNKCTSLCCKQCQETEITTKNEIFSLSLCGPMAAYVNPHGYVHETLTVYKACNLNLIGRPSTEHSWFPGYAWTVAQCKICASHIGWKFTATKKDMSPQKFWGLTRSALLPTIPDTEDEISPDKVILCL
T2 sequence (Q16531 whole entry partner): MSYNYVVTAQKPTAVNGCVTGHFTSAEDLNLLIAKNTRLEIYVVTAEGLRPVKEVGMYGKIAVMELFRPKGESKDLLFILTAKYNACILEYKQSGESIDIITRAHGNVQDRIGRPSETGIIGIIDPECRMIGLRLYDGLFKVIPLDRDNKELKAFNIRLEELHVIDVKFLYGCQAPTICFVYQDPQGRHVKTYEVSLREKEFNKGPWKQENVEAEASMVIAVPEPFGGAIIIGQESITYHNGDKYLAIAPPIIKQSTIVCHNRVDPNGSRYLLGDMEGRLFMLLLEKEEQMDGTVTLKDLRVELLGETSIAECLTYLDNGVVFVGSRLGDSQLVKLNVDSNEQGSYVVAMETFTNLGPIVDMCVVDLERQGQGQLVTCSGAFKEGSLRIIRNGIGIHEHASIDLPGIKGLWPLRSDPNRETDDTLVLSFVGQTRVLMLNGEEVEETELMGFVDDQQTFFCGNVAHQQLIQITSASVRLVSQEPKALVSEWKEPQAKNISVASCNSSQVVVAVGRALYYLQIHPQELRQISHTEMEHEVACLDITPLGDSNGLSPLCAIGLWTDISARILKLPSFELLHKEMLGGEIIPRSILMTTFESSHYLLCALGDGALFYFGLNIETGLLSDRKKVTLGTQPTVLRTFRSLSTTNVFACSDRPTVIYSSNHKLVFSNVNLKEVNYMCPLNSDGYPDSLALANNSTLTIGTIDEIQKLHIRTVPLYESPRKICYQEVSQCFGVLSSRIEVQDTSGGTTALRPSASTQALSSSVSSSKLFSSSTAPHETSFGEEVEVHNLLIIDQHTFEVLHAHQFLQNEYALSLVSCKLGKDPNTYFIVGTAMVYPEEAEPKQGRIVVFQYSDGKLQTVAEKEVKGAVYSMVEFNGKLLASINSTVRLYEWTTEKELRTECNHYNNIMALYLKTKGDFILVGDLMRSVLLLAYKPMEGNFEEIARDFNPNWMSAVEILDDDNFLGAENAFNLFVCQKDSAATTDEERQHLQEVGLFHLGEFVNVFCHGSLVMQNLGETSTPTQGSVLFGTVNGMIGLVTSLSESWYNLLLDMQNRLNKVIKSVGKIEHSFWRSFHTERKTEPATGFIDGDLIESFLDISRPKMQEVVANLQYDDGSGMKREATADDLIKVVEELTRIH

IKZF2 = target: T3, IKZF2 (Homo sapiens, UniProt Q96SW2+Q9UKS7); assay: Western-blot assay, substrate protein degradation in hPBMCs: IKZF2; settings: for IKZF2 substrate protein remaining %: compounds at 50 nM and 500 nM, 24 hours
T3 construct: effects of the compounds of the present disclosure on the expression of target proteins in cells; endogenous in cells; host or cells: human PBMCs (hPBMCs)
T3 sequence (Q9UKS7 whole entry): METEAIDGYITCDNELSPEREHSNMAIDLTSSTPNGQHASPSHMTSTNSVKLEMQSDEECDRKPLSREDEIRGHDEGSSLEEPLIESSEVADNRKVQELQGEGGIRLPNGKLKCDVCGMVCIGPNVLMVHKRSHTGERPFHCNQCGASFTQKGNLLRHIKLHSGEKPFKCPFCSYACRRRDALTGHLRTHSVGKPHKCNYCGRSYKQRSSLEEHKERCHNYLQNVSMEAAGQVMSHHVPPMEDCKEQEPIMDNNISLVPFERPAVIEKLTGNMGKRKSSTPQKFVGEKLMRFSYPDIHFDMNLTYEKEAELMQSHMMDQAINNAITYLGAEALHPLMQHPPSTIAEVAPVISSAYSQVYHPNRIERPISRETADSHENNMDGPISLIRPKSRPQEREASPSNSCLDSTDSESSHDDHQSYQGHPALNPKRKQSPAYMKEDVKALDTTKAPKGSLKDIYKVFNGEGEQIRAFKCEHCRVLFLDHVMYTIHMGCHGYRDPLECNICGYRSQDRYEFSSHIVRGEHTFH
T3 sequence (Q96SW2 whole entry): as the sequence (Q96SW2 whole entry) above
T3 sequence (Q16531 whole entry partner): as the sequence (Q16531 whole entry partner) above

IKZF3 = target: T4, IKZF3 (Homo sapiens, UniProt Q96SW2+Q9UKT9); assay: Western-blot assay, substrate protein degradation in hPBMCs: IKZF3; settings: for IKZF3 substrate protein remaining %: compounds at 50 nM and 500 nM, 24 hours
T4 construct: effects of the compounds of the present disclosure on the expression of target proteins in cells; endogenous in cells; host or cells: human PBMCs (hPBMCs)
T4 sequence (Q9UKT9 whole entry): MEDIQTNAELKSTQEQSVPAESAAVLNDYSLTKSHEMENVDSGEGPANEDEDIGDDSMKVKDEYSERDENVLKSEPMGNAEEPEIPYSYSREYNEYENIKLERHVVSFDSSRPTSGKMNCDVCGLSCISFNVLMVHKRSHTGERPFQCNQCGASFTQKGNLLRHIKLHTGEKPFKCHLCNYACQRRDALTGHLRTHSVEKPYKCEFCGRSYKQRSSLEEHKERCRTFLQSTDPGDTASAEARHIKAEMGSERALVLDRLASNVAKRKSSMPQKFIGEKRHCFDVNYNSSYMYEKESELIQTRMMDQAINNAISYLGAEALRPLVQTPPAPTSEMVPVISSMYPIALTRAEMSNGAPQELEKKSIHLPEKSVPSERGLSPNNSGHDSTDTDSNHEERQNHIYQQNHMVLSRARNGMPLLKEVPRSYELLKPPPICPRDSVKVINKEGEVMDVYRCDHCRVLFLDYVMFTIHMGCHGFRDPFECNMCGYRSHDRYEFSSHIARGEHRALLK
T4 sequence (Q96SW2 whole entry): as the sequence (Q96SW2 whole entry) above
T4 sequence (Q16531 whole entry partner): as the sequence (Q16531 whole entry partner) above

CK1α = target: T5, CK1α (Homo sapiens, UniProt P48729+Q96SW2); assay: Western-blot assay, substrate protein degradation in hPBMCs: CK1α; settings: for CK1α substrate protein remaining %: compounds at 50 nM and 500 nM, 24 hours
T5 construct: effects of the compounds of the present disclosure on the expression of target proteins in cells; endogenous in cells; host or cells: human PBMCs (hPBMCs)
T5 sequence (P48729 whole entry): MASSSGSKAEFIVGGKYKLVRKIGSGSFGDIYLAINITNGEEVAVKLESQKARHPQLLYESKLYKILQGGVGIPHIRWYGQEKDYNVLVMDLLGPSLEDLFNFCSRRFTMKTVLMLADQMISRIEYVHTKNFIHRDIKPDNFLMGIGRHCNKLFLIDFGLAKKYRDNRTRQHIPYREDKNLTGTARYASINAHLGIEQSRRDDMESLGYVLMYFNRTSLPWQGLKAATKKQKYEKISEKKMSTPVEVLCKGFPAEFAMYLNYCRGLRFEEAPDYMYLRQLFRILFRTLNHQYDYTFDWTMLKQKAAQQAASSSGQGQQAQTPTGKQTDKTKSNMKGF
T5 sequence (Q96SW2 whole entry): as the sequence (Q96SW2 whole entry) above
T5 sequence (Q16531 whole entry partner): as the sequence (Q16531 whole entry partner) above

GSPT1 = target: T6, GSPT1 (Homo sapiens, UniProt P15170+Q96SW2); assay: Western-blot assay, substrate protein degradation in hPBMCs: GSPT1; settings: for GSPT1 substrate protein remaining %: compounds at 50 nM and 500 nM, 24 hours
T6 construct: effects of the compounds of the present disclosure on the expression of target proteins in cells; endogenous in cells; host or cells: human PBMCs (hPBMCs)

[1] = 24 hours of compound treatment, 50 nM and 500 nM

T1 sequence (P30291 whole entry): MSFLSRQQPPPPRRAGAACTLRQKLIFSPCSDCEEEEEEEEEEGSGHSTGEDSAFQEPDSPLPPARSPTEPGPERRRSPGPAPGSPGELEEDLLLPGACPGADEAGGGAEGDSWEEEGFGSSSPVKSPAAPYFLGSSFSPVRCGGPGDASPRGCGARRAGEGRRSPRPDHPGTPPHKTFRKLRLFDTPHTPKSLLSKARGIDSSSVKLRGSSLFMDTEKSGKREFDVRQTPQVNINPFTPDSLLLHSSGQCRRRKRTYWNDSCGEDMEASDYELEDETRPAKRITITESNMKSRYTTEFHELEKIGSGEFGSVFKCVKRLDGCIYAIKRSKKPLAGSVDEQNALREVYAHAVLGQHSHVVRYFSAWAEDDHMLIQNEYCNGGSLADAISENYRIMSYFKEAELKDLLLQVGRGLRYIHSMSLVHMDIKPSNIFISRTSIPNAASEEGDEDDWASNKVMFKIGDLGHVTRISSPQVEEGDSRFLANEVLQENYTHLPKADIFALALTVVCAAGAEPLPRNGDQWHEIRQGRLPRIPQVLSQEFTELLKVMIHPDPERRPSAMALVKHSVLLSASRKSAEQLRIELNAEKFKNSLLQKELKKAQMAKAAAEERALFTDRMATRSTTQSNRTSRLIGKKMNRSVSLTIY
T1 sequence (Q96SW2 whole entry): as the sequence (Q96SW2 whole entry) above
T1 sequence (Q16531 whole entry partner): as the sequence (Q16531 whole entry partner) above

Compound | substrate protein remaining % WEE1 (WEE1; [1]) | WEE1 substrate protein remaining % (WEE1) | substrate protein remaining % IKZF1 (IKZF1; [1]) | IKZF1 substrate protein remaining % (IKZF1) | substrate protein remaining % IKZF2 (IKZF2; [1]) | IKZF2 substrate protein remaining % (IKZF2) | substrate protein remaining % IKZF3 (IKZF3; [1]) | IKZF3 substrate protein remaining % (IKZF3) | substrate protein remaining % CK1α (CK1α; [1]) | CK1α substrate protein remaining % (CK1α) | substrate protein remaining % GSPT1 (GSPT1; [1]) | GSPT1 substrate protein remaining % (GSPT1)
O=C1CCN(N2Cc3cc(CN4CCN(c5ccncc5Br)CC4)ccc3C2=O)C(=O)N1 [GT-05439, 1-(5-((4-(3-bromopyridin-4-yl)piperazin-1-yl)methyl)-1-oxoisoindolin-2-yl)dihydropyrimidine-2,4(1H,3H)-dione] | A (0% ≤ substrate protein remaining % ≤ 80%) | A ("A" is defined as 0% ≤ substrate protein remaining % ≤ 80%) | B (80%< substrate protein remaining %≤ 100%) | B ("B" is defined as 80%< substrate protein remaining %≤ 100%) | B (80%< substrate protein remaining %≤ 100%) | B ("B" is defined as 80%< substrate protein remaining %≤ 100%) | A (0% ≤ substrate protein remaining % ≤ 80%) | B ("B" is defined as 80%< substrate protein remaining %≤ 100%) | A (0% ≤ substrate protein remaining % ≤ 80%) | B ("B" is defined as 80%< substrate protein remaining %≤ 100%) | A (0% ≤ substrate protein remaining % ≤ 80%) | B ("B" is defined as 80%< substrate protein remaining %≤ 100%)
O=C1CCN(N2Cc3cc(CN4CCN(c5ccncc5F)CC4)ccc3C2=O)C(=O)N1 [GT-05697, 1-(5-((4-(3-fluoropyridin-4-yl)piperazin-1-yl)methyl)-1-oxoisoindolin-2-yl)dihydropyrimidine-2,4(1H,3H)-dione] |  | A ("A" is defined as 0% ≤ substrate protein remaining % ≤ 80%) |  | B ("B" is defined as 80%< substrate protein remaining %≤ 100%) |  | B ("B" is defined as 80%< substrate protein remaining %≤ 100%) |  | B ("B" is defined as 80%< substrate protein remaining %≤ 100%) |  | B ("B" is defined as 80%< substrate protein remaining %≤ 100%) |  | A ("A" is defined as 0% ≤ substrate protein remaining % ≤ 80%)
O=C1CCN(N2Cc3cc(CN4CCN(C(c5ccccc5)c5cccnc5)CC4)ccc3C2=O)C(=O)N1 (stereo not drawn) [GT-06376, 1-(1-oxo-5-((4-(phenyl(pyridin-3-yl)methyl)piperazin-1-yl)methyl)isoindolin-2-yl)dihydropyrimidine-2,4(1H,3H)-dione] |  | A ("A" is defined as 0% ≤ substrate protein remaining % ≤ 80%) |  | B ("B" is defined as 80%< substrate protein remaining %≤ 100%) |  | A ("A" is defined as 0% ≤ substrate protein remaining % ≤ 80%) |  | B ("B" is defined as 80%< substrate protein remaining %≤ 100%) |  | B ("B" is defined as 80%< substrate protein remaining %≤ 100%) |  | A ("A" is defined as 0% ≤ substrate protein remaining % ≤ 80%)
O=C1CCN(N2C(=O)c3ccc(CN4CCN(C(c5ccccc5)c5cccnc5)CC4)cc3C2=O)C(=O)N1 (stereo not drawn) [GT-06377, 2-(2,4-dioxotetrahydropyrimidin-1(2H)-yl)-5-((4-(phenyl(pyridin-3-yl)methyl)piperazin-1-yl)methyl)isoindoline-1,3-dione] |  | A ("A" is defined as 0% ≤ substrate protein remaining % ≤ 80%) |  | B ("B" is defined as 80%< substrate protein remaining %≤ 100%) |  | A ("A" is defined as 0% ≤ substrate protein remaining % ≤ 80%) |  | B ("B" is defined as 80%< substrate protein remaining %≤ 100%) |  | B ("B" is defined as 80%< substrate protein remaining %≤ 100%) |  | B ("B" is defined as 80%< substrate protein remaining %≤ 100%)
O=C1CCN(N2C(=O)c3ccc(CN4CCN(C(c5ccccc5)c5ccncc5)CC4)cc3C2=O)C(=O)N1 (stereo not drawn) [GT-06378, 2-(2,4-dioxotetrahydropyrimidin-1(2H)-yl)-5-((4-(phenyl(pyridin-4-yl)methyl)piperazin-1-yl)methyl)isoindoline-1,3-dione] |  | A ("A" is defined as 0% ≤ substrate protein remaining % ≤ 80%) |  | B ("B" is defined as 80%< substrate protein remaining %≤ 100%) |  | A ("A" is defined as 0% ≤ substrate protein remaining % ≤ 80%) |  | A ("A" is defined as 0% ≤ substrate protein remaining % ≤ 80%) |  | B ("B" is defined as 80%< substrate protein remaining %≤ 100%) |  | B ("B" is defined as 80%< substrate protein remaining %≤ 100%)
O=C1CCN(N2C(=O)c3ccc(CN4CCN(C(c5ccccn5)c5ccccn5)CC4)cc3C2=O)C(=O)N1 [GT-06379, 5-((4-(di(pyridin-2-yl)methyl)piperazin-1-yl)methyl)-2-(2,4-dioxotetrahydropyrimidin-1(2H)-yl)isoindoline-1,3-dione] |  | A ("A" is defined as 0% ≤ substrate protein remaining % ≤ 80%) |  | B ("B" is defined as 80%< substrate protein remaining %≤ 100%) |  | A ("A" is defined as 0% ≤ substrate protein remaining % ≤ 80%) |  | A ("A" is defined as 0% ≤ substrate protein remaining % ≤ 80%) |  | B ("B" is defined as 80%< substrate protein remaining %≤ 100%) |  | A ("A" is defined as 0% ≤ substrate protein remaining % ≤ 80%)
CC1(C)CN(Cc2ccc3c(c2)C(=O)N(N2CCC(=O)NC2=O)C3=O)CCN1C(c1ccccc1)c1ccccc1 [GT-06385, 5-((4-benzhydryl-3,3-dimethylpiperazin-1-yl)methyl)-2-(2,4-dioxotetrahydropyrimidin-1(2H)-yl)isoindoline-1,3-dione] |  | A ("A" is defined as 0% ≤ substrate protein remaining % ≤ 80%) |  | B ("B" is defined as 80%< substrate protein remaining %≤ 100%) |  | B ("B" is defined as 80%< substrate protein remaining %≤ 100%) |  | A ("A" is defined as 0% ≤ substrate protein remaining % ≤ 80%) |  | B ("B" is defined as 80%< substrate protein remaining %≤ 100%) |  | A ("A" is defined as 0% ≤ substrate protein remaining % ≤ 80%)
O=C1CCN(N2Cc3cc(CN4CCC(c5nccc(Cl)c5Cl)CC4)ccc3C2=O)C(=O)N1 [GT-06388, 1-(5-((4-(3,4-dichloropyridin-2-yl)piperidin-1-yl)methyl)-1-oxoisoindolin-2-yl)dihydropyrimidine-2,4(1H,3H)-dione] |  | B ("B" is defined as 80%< substrate protein remaining %≤ 100%) |  | B ("B" is defined as 80%< substrate protein remaining %≤ 100%) |  | B ("B" is defined as 80%< substrate protein remaining %≤ 100%) |  | B ("B" is defined as 80%< substrate protein remaining %≤ 100%) |  | B ("B" is defined as 80%< substrate protein remaining %≤ 100%) |  | A ("A" is defined as 0% ≤ substrate protein remaining % ≤ 80%)
O=C1CCN(N2Cc3cc(CN4CCC(c5ccnc(Cl)c5Cl)CC4)ccc3C2=O)C(=O)N1 [GT-06390, 1-(5-((4-(2,3-dichloropyridin-4-yl)piperidin-1-yl)methyl)-1-oxoisoindolin-2-yl)dihydropyrimidine-2,4(1H,3H)-dione] |  | B ("B" is defined as 80%< substrate protein remaining %≤ 100%) |  | B ("B" is defined as 80%< substrate protein remaining %≤ 100%) |  | B ("B" is defined as 80%< substrate protein remaining %≤ 100%) |  | B ("B" is defined as 80%< substrate protein remaining %≤ 100%) |  | B ("B" is defined as 80%< substrate protein remaining %≤ 100%) |  | A ("A" is defined as 0% ≤ substrate protein remaining % ≤ 80%)
O=C1CCN(N2Cc3cc(CN4CC=C(c5cncc(Cl)c5)CC4)ccc3C2=O)C(=O)N1 [GT-06394, 1-(5-((5-chloro-3',6'-dihydro-[3,4'-bipyridin]-1'(2'H)-yl)methyl)-1-oxoisoindolin-2-yl)dihydropyrimidine-2,4(1H,3H)-dione] |  | B ("B" is defined as 80%< substrate protein remaining %≤ 100%) |  | B ("B" is defined as 80%< substrate protein remaining %≤ 100%) |  | A ("A" is defined as 0% ≤ substrate protein remaining % ≤ 80%) |  | B ("B" is defined as 80%< substrate protein remaining %≤ 100%) |  | A ("A" is defined as 0% ≤ substrate protein remaining % ≤ 80%) |  | A ("A" is defined as 0% ≤ substrate protein remaining % ≤ 80%)

— patent publication EP4722207A1, “OXOISOINDOLINYL-SUBSTITUTED TETRAHYDROPYRIMIDINEDIONE DERIVATIVE AND USE THEREOF” (Gluetacs Therapeutics (Shanghai) Co., Ltd., priority 2023, dated 2024)
